Consider twelve compounds from US12612410B2 (CHILDREN'S HOSPITAL MEDICAL CENTER, priority 2020, dated 2026).

The subject of experiment [1] is NF-κB. Kind of experiment: NF-kB SEAP reporter assay in THP-1-Blue NF-κB cells, hIL1B stimulation. As to conditions: hIL1B 1 ng/mL, read-out: NF-κB IL1B IC50. It counts as cell-based. As to the method: (§1) THP-1-Blue NF-xB cells (InvivoGen) carrying a stable integrated NF-κB-inducible secreted embryonic alkaline phosphatase (SEAP) reporter construct were plated at a concentration of 1×10^5 cells per well. The cells were stimulated with Pam3CSK4 (1 ng/mL) or hIL1B (1 ng/mL). After 10-20 minutes, the cells were then treated with vehicle (DMSO) or serial dilutions of the test compounds (10 doses tested for each test compound, with a 1:10 dilution series starting at 1 μM or 3 μM) with a final volume of 200 μL for 24 hours at 37° C. After 24 hours, the cells were centrifuged and 20 μL supernatant was incubated with 180 μL QUANTI-Blue reagent at 37° C. for 30-60 minutes. The levels of NF-κB-induced was measured in a microplate reader at 620 nm.

A further experiment deals with T1, FLT3 (Homo sapiens, UniProt P36888).
T1 sequence (P36888 27-993): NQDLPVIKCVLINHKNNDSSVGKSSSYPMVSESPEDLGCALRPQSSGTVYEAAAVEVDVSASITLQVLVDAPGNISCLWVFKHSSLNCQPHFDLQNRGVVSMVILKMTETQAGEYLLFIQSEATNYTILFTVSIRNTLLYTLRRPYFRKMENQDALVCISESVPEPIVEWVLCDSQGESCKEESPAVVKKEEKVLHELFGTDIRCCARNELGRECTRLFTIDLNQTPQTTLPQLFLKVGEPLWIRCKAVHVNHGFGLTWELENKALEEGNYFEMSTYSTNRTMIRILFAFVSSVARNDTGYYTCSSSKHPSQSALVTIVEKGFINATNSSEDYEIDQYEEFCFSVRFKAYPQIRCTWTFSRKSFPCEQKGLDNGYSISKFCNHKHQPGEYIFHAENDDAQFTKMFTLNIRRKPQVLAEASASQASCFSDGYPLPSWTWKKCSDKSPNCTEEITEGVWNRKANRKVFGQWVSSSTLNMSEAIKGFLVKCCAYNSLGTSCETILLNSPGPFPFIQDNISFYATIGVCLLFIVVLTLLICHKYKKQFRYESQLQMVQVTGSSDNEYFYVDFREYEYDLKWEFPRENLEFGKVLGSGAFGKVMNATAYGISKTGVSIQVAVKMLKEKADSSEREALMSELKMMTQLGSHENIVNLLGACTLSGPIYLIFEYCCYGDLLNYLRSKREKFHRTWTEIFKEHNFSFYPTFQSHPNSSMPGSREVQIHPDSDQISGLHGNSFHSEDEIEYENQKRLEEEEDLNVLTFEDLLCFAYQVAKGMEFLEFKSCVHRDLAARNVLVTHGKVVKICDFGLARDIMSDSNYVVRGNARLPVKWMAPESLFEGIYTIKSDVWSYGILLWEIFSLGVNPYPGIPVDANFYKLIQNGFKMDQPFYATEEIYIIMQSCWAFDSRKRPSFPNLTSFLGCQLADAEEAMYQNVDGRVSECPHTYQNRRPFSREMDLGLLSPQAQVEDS
In words: RBC HotSpot Kinase Assay, FLT3. Type of experiment: biochemical. The following applies: isolated kinase, 33P-ATP. Set-up: purchased Reaction Biology (RBC), HotSpot kinase assay. Put shortly:
(§2)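 Steps: substrate in reaction buffer (20 mM Hepes pH 7.5, 10 mM MgCl2, 2 mM DTT, 1% DMSO); cofactors added; kinase added; compound dispensed acoustically, 20 min RT; 33P-ATP added; 2 h RT; P81 filter capture.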

The target of the next experiment is T2, IRAK4 (Homo sapiens, UniProt Q9NWZ3).
T2 sequence (Q9NWZ3 1-460): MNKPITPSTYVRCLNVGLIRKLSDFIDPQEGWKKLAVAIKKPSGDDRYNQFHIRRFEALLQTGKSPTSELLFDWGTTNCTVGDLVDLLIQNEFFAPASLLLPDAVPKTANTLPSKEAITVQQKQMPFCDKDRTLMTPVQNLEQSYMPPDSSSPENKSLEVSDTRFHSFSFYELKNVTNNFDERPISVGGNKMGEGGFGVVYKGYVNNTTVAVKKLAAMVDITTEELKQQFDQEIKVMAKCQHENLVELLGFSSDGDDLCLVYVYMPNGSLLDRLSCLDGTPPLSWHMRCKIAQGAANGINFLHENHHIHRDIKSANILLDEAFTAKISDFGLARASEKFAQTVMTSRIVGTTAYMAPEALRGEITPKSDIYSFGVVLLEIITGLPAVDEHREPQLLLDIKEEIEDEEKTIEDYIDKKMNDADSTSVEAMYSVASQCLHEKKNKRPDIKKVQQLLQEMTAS
In words: RBC HotSpot Kinase Assay, IRAK4. Type of experiment: biochemical. Set-up: purchased Reaction Biology (RBC), HotSpot kinase assay. As to conditions: isolated kinase, 33P-ATP. Put shortly:
as §2

Experiment [2] relates to NF-κB. In words: NF-kB SEAP reporter assay in THP-1-Blue NF-κB cells, Pam3CSK4 stimulation. It counts as cell-based. The following applies: Pam3CSK4 1 ng/mL, read-out: NF-κB Pam3SCK4 IC50. As to the method: as §1
The target in a further experiment is T3, IRAK1 (Homo sapiens, UniProt P51617).
T3 construct: purchased Reaction Biology (RBC), HotSpot kinase assay
In words: RBC HotSpot Kinase Assay, IRAK1. It counts as biochemical. The following applies: isolated kinase, 33P-ATP. Put shortly: as §2

A further experiment relates to MOLM14 F691L cells. Kind of experiment: MOLM14 F691L cell viability assay (Cell Titer Glo). It counts as cell-based. The following applies: Homo sapiens, MOLM-14, 48 h. In outline: (§3)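 MOLM14 cells carrying FLT3 D835Y or F691L were seeded at 1000 cells/well in RPMI-1640 with 20% FBS and dosed at 22 concentrations, 1:2 dilutions from 10 μM. Viability after 48 h by Cell Titer Glo luminescence; 2.3 μM bortezomib as cytotoxic control.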

Another experiment deals with MOLM14 D835Y cells. Kind of experiment: MOLM14 D835Y cell viability assay (Cell Titer Glo). It counts as cell-based. The following applies: Homo sapiens, MOLM-14, 48 h. In outline:
as §3

T3 sequence (P51617 whole entry): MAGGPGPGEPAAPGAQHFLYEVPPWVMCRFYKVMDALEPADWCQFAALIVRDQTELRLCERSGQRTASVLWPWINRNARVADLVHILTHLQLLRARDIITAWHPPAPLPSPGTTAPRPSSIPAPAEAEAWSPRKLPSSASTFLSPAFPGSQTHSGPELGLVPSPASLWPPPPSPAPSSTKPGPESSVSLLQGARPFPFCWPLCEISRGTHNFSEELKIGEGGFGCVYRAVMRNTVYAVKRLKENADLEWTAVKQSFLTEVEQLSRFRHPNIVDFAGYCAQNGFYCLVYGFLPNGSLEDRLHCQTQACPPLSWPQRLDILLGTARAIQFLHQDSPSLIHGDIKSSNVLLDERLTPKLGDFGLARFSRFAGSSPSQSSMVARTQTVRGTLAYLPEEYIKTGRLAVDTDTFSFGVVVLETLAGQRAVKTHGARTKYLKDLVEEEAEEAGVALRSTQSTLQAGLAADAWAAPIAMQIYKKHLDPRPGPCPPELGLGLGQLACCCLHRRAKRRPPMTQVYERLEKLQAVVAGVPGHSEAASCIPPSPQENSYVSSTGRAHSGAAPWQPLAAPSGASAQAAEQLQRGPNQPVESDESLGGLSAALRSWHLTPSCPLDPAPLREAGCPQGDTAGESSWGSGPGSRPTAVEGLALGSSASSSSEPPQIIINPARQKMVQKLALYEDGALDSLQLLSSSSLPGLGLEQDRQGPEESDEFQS

On to `F[C@H]1CNC[C@@H]1Nc1cccc(-c2cnc3cnc(OCC(F)(F)F)cn23)n1` [Compound 36, N-((3S,4S)-4-fluoropyrrolidin-3-yl)-6-(6-(2,2,2-trifluoroethoxy)imidazo[1,2-a]pyrazin-3-yl)pyridin-2-amine], for which the half-inhibitory concentration (IC50) in the experiment on NF-κB [1] (24 h) is 40 nM; against FLT3, less than 0.5 nM; against IRAK4, 1 nM; in the experiment with NF-κB [2] (24 h), 17 nM; against IRAK1, 190 nM.
The corresponding values for `CC(C)Oc1cn2c(-c3cccc(N[C@H]4CNC[C@@H]4F)n3)cnc2cn1` [Compound 59, N-((3S,4S)-4-fluoropyrrolidin-3-yl)-6-(6-isopropoxyimidazo[1,2-a]pyrazin-3-yl)pyridin-2-amine] are 144 nM, less than 0.5 nM, less than 0.5 nM, 24 nM and 696 nM.
For the compound `O=S1(=O)CCCN1c1cn2c(-c3cccc(N[C@@H]4CCCNC4)n3)cnc2cn1` [Compound 96, (R)-2-(3-(6-(piperidin-3-ylamino)pyridin-2-yl)imidazo[1,2-a]pyrazin-6-yl)isothiazolidine 1,1-dioxide], the IC50 in the experiment with NF-κB [1] (24 hours) stood at 263 nM; on FLT3 it was 0.9 nM; with MOLM14 F691L cells, 39 nM; on IRAK4 it was 2 nM; in the experiment with NF-κB [2] (24 hours), 20 nM; against IRAK1 it was 49 nM. In the experiment with MOLM14 D835Y cells, the IC50 amounted to 7 nM.
Turning to `O=C1CCCN1c1cn2c(-c3cccc(N[C@@H]4CCCNC4)n3)cnc2cn1` [Compound 120, 1-[3-[6-[[(3R)-3-piperidyl]amino]-2-pyridyl]imidazo[1,2-a]pyrazin-6-yl]pyrrolidin-2-one], the IC50 was less than 0.5 nM at FLT3; 86 nM in the experiment with MOLM14 F691L cells; 15 nM against IRAK4; 234 nM at IRAK1; 24 nM in the experiment on MOLM14 D835Y cells.
For `CC(C)(C)c1cn2c(-c3cc(F)cc(N[C@H]4CNC[C@@H]4F)n3)cnc2cn1` [Compound 122, 6-(6-(tert-butyl)imidazo[1,2-a]pyrazin-3-yl)-4-fluoro-N-((3S,4S)-4-fluoropyrrolidin-3-yl)pyridin-2-amine], the half-inhibitory concentration (IC50) against FLT3 is less than 0.5 nM; in the experiment with MOLM14 F691L cells, 770 nM; against IRAK4, 31 nM; against IRAK1, 475 nM; in the experiment on MOLM14 D835Y cells, 334 nM.
The corresponding values for `CC(C)(C)c1cn2c(-c3cc(F)cc(N[C@@H]4CCCNC4)n3)cnc2cn1` [Compound 123, (R)-6-(6-(tert-butyl)imidazo[1,2-a]pyrazin-3-yl)-4-fluoro-N-(piperidin-3-yl)pyridin-2-amine] are 0.6 nM, 244 nM, 38 nM, 296 nM and 86 nM.
On to `CC(C)(C)c1cn2c(-c3cc(F)cc(N[C@H]4CNCC[C@@H]4F)n3)cnc2cn1` [Compound 124, 6-(6-(tert-butyl)imidazo[1,2-a]pyrazin-3-yl)-4-fluoro-N-((3S,4S)-4-fluoropiperidin-3-yl)pyridin-2-amine], for which the IC50 was less than 0.5 nM at FLT3; 290 nM in the experiment with MOLM14 F691L cells; 17 nM on IRAK4; 143 nM on IRAK1; 130 nM in the experiment on MOLM14 D835Y cells.
On to `CC(C)(C)c1cn2c(-c3cccc(N[C@H]4CNC[C@@H]4F)n3)cnc2cn1` [Compound 128, 6-(6-(tert-butyl)imidazo[1,2-a]pyrazin-3-yl)-N-((3S,4S)-4-fluoropyrrolidin-3-yl)pyridin-2-amine], for which the IC50 on FLT3 is less than 0.5 nM; in the experiment with MOLM14 F691L cells it was 326 nM; at IRAK4, 0.6 nM; against IRAK1 it was 108 nM; with MOLM14 D835Y cells it was 58 nM.
As for `CC(C)Oc1cn2c(-c3cccc(N[C@@H]4CCCNC4)n3)cnc2cn1` [Compound 131, (R)-6-(6-isopropoxyimidazo[1,2-a]pyrazin-3-yl)-N-(piperidin-3-yl)pyridin-2-amine], the IC50 is less than 0.5 nM against FLT3; 168 nM in the experiment on MOLM14 F691L cells; 10 nM at IRAK4; 438 nM on IRAK1; 27 nM in the experiment on MOLM14 D835Y cells.
On to `F[C@H]1CNC[C@@H]1Nc1cccc(-c2cnc3cnc(OCC4CC4)cn23)n1` [compound 60, 6-(6-(cyclopropylmethoxy)imidazo[1,2-a]pyrazin-3-yl)-N-((3S,4S)-4-fluoropyrrolidin-3-yl)pyridin-2-amine], for which the IC50 with NF-κB [1] (24 h) is 356 nM; at FLT3 it was less than 0.5 nM; against IRAK4, 2 nM; with NF-κB [2] (24 h), 34 nM; against IRAK1, 833 nM.
For the compound `FC(F)COc1cn2c(-c3cccc(N[C@H]4CNCC[C@@H]4F)n3)cnc2cn1` [compound 76, 6-(6-(2,2-difluoroethoxy)imidazo[1,2-a]pyrazin-3-yl)-N-((3S,4S)-4-fluoropiperidin-3-yl)pyridin-2-amine], the IC50 was less than 0.5 nM against FLT3; 199 nM in the experiment with MOLM14 F691L cells; 1 nM against IRAK4; 159 nM against IRAK1; 19 nM in the experiment with MOLM14 D835Y cells.
As to `CC(C)Oc1cn2c(-c3cccc(N[C@H]4CNCC[C@@H]4F)n3)cnc2cn1` [compound 132, N-((3S,4S)-4-fluoropiperidin-3-yl)-6-(6-isopropoxyimidazo[1,2-a]pyrazin-3-yl)pyridin-2-amine], the IC50 is less than 0.5 nM against FLT3; 119 nM with MOLM14 F691L cells; 2 nM at IRAK4; 144 nM on IRAK1; 19 nM with MOLM14 D835Y cells.
